Data published in ChEMBL document CHEMBL5131484, “Design and synthesis of adamantane-1-carbonyl thiourea derivatives as potent and selective inhibitors of h-P2X4 and h-P2X7 receptors: An Emerging therapeutic tool for treatment of inflammation and neurological disorders” (Eur J Med Chem, 2022).
pIC50: −log10 of the molar value.

Columns and labels:
[1] = biological target: T1, P2X purinoceptor 4 (Homo sapiens, UniProt Q99571); assay: Antagonist activity at human P2X4 receptor expressed in human 1321N1 cells assessed as reduction in intracellular Ca2+ influx incubated for 30 mins by Fura-2 AM based fluorescence assay; format: cell-based
T1 sequence (Q99571 whole entry): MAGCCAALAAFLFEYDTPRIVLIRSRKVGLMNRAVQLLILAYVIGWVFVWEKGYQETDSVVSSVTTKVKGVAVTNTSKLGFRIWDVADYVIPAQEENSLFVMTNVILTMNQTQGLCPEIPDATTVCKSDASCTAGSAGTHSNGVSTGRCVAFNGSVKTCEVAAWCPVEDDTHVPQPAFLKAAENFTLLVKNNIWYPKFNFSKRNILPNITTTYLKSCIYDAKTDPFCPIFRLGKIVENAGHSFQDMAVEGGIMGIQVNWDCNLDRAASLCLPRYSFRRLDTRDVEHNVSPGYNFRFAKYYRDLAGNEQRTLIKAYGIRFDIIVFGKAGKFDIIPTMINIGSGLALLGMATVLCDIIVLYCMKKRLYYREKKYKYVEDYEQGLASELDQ

[2] = test system: HeLa; assay: Cytotoxicity against human HeLa cells assessed as reduction in cell viability at 50 uM incubated for 24 hrs by MTT assay relative to control; format: functional
[3] = Cytotoxicity against human 1321N1 cells assessed as reduction in cell viability at 50 uM incubated for 24 hrs by MTT assay relative to control; format: functional
[4] = biological target: T2, P2X purinoceptor 7 (Homo sapiens) (UniProt Q99572); assay: (§1) Antagonist activity at human P2X7 receptor expressed in human 1321N1 cells assessed as reduction in ethidium bromide dye uptake at 20 uM preincubated for 15 mins followed by BzATP addition and measured after 30 mins by Ethidium bromide dye based fluorescence plate reader analysis relative to control; format: cell-based; conditions: filed as antagonist, time 45.0 min
T2 sequence (whole entry): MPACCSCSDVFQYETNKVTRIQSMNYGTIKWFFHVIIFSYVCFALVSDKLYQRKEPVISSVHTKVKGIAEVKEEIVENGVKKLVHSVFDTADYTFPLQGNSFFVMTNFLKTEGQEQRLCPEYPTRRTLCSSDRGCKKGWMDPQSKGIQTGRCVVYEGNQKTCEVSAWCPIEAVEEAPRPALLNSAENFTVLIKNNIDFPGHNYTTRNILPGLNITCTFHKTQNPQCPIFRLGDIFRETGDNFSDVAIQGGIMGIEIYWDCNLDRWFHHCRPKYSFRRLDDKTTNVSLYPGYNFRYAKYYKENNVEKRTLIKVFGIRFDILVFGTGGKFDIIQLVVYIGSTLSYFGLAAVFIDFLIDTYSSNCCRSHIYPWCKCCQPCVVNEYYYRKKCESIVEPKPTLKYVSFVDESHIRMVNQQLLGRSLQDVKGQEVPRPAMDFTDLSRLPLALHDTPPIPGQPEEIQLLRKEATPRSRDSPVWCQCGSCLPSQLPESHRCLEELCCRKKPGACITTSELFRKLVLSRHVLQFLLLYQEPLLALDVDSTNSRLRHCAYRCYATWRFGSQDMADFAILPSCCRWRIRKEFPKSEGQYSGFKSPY

[5] = biological target: T3, P2X purinoceptor 7 (Homo sapiens, UniProt Q99572); assay: Antagonist activity at human P2X7 receptor expressed in human 1321N1 cells assessed as reduction in intracellular Ca2+ influx incubated for 30 mins by Fura-2 AM based fluorescence assay; format: cell-based
T3 sequence (Q99572 whole entry): T2 sequence (whole entry)

[6] = biological target: T4, P2X purinoceptor 5 (Homo sapiens, UniProt Q93086); assay: Antagonist activity at human P2X5 receptor expressed in human 1321N1 cells assessed as reduction in intracellular Ca2+ influx incubated for 30 mins by Fura-2 AM based fluorescence assay relative to control; format: cell-based
T4 sequence (Q93086 whole entry): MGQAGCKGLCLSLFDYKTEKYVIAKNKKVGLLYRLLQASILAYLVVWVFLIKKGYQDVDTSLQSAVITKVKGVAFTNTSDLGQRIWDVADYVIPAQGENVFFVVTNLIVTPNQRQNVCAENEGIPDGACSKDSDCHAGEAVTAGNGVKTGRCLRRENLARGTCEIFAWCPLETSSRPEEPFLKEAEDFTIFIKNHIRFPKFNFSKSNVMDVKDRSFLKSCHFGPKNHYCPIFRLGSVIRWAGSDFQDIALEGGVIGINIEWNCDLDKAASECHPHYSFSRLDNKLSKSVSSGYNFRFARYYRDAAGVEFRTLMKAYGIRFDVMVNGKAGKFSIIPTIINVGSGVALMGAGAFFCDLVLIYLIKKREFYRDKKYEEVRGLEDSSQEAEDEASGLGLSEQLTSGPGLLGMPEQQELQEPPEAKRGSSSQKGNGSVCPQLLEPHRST

[7] = biological target: T3, P2X purinoceptor 7; assay: Antagonist activity at human P2X7 receptor expressed in human 1321N1 cells assessed as reduction in ethidium bromide dye uptake preincubated for 15 mins followed by BzATP addition and measured after 30 mins by Ethidium bromide dye based fluorescence plate reader analysis; format: cell-based
[8] = Cytotoxicity against human HEK293 cells assessed as reduction in cell viability at 50 uM incubated for 24 hrs by MTT assay relative to control; format: toxicity, cell-based; conditions: read-out: INH
[9] = biological target: T5, P2X purinoceptor 2 (Homo sapiens) (UniProt Q9UBL9); assay: Antagonist activity at human P2X2 receptor expressed in human 1321N1 cells assessed as reduction in intracellular Ca2+ influx incubated for 30 mins by Fura-2 AM based fluorescence assay relative to control; format: cell-based
T5 sequence (whole entry): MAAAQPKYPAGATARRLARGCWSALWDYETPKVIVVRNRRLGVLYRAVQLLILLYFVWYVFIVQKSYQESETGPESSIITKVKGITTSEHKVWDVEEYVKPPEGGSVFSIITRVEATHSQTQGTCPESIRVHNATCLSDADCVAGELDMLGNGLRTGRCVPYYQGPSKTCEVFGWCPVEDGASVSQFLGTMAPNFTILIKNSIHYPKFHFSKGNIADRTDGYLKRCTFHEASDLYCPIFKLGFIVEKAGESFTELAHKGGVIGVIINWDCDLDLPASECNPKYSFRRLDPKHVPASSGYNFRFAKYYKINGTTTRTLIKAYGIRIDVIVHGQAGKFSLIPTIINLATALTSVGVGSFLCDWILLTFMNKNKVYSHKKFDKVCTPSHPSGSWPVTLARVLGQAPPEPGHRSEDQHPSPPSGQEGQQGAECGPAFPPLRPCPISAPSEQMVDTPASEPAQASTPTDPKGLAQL

[10] = biological target: T4, P2X purinoceptor 5; assay: Negative allosteric modulation activity at human P2X5 receptor expressed in human 1321N1 cells assessed as reduction in intracellular Ca2+ influx incubated for 30 mins by Fura-2 AM based fluorescence assay relative to control; format: cell-based
[11] = biological target: T5, P2X purinoceptor 2 (Homo sapiens); assay: Negative allosteric modulation activity at human P2X2 receptor expressed in human 1321N1 cells assessed as reduction in intracellular Ca2+ influx incubated for 30 mins by Fura-2 AM based fluorescence assay relative to control; format: cell-based
[12] = biological target: T3, P2X purinoceptor 7; assay: Negative allosteric modulation activity at human P2X7 receptor expressed in human 1321N1 cells assessed as reduction in intracellular Ca2+ influx incubated for 30 mins by Fura-2 AM based fluorescence assay; format: cell-based
[13] = biological target: T6, P2X purinoceptor 4 (Homo sapiens) (UniProt Q99571); assay: Negative allosteric modulation activity at human P2X4 receptor expressed in human 1321N1 cells assessed as ATP induced calcium response by measuring maximal ATP efficacy at 40 nM relative to control; format: cell-based; conditions: filed as negative allosteric modulator
T6 sequence (whole entry): T1 sequence (Q99571 whole entry)

[14] = biological target: T6, P2X purinoceptor 4 (Homo sapiens); assay: Negative allosteric modulation activity at human P2X4 receptor expressed in human 1321N1 cells assessed as ATP induced calcium response by measuring maximal ATP efficacy at 200 nM relative to control; format: cell-based
[15] = biological target: T6, P2X purinoceptor 4 (Homo sapiens); assay: Negative allosteric modulation activity at human P2X4 receptor expressed in human 1321N1 cells assessed as ATP induced calcium response by measuring maximal ATP efficacy at 100 nM relative to control; format: cell-based; conditions: filed as negative allosteric modulator
[16] = biological target: T6, P2X purinoceptor 4 (Homo sapiens); assay: Negative allosteric modulation activity at human P2X4 receptor expressed in human 1321N1 cells assessed as reduction in intracellular Ca2+ influx incubated for 30 mins by Fura-2 AM based fluorescence assay relative to control; format: cell-based
[17] = biological target: T2, P2X purinoceptor 7 (Homo sapiens); assay: as §1, with “Negative allosteric modulation” for “Antagonist”; format: cell-based; conditions: filed as negative allosteric modulator, time 45.0 min
[18] = biological target: T3, P2X purinoceptor 7; assay: Negative allosteric modulation activity at human P2X7 receptor expressed in human 1321N1 cells assessed as reduction in ethidium bromide dye uptake preincubated for 15 mins followed by BzATP addition and measured after 30 mins by Ethidium bromide dye based fluorescence plate reader analysis; format: cell-based
[19] = biological target: T2, P2X purinoceptor 7 (Homo sapiens); assay: Negative allosteric modulation activity at human P2X7 receptor expressed in human 1321N1 cells assessed as ATP induced calcium response by measuring maximal ATP efficacy at 200 nM relative to control; format: cell-based
[20] = biological target: T2, P2X purinoceptor 7 (Homo sapiens); assay: Negative allosteric modulation activity at human P2X7 receptor expressed in human 1321N1 cells assessed as ATP induced calcium response by measuring maximal ATP efficacy at 40 nM relative to control; format: cell-based; conditions: filed as negative allosteric modulator
[21] = biological target: T2, P2X purinoceptor 7 (Homo sapiens); assay: Negative allosteric modulation activity at human P2X7 receptor expressed in human 1321N1 cells assessed as ATP induced calcium response by measuring maximal ATP efficacy at 100 nM relative to control; format: cell-based; conditions: filed as negative allosteric modulator
[22] = biological target: T6, P2X purinoceptor 4 (Homo sapiens); assay: Antagonist activity at human P2X4 receptor expressed in human 1321N1 cells assessed as reduction in intracellular Ca2+ influx incubated for 30 mins by Fura-2 AM based fluorescence assay relative to control; format: cell-based

## NS(=O)(=O)c1ccccc1NC(=S)NC(=O)C12CC3CC(CC(C3)C1)C2
[1]
  pIC50: 5.38
[2]
  inhibition at 50 µM: 9.5%
[3]
  inhibition at 50 µM: 12.9%
[4]
  Emax: 58%
[5]
  pIC50: 6.16
[6]; filed as antagonist
  inhibition: 43%
[7]
  pIC50: 6.10
[8]
  cytotoxicity at 24 h, 50 µM: 3.77%
[9]
  inhibition: 18%

## CC(C)c1ccc(NC(=S)NC(=O)C23CC4CC(CC(C4)C2)C3)c(Br)c1
[2]
  inhibition at 50 µM: 6.54%
[3]
  inhibition at 50 µM: 9.26%
[10]
  inhibition: 12%
[11]
  inhibition: 30%
[12]
  pIC50: 4.60
[13]
  Emax: 68%
[8]
  cytotoxicity at 24 h, 50 µM: 4.28%
[14]
  Emax: 32%
[15]
  Emax: 45%

## O=C(NC(=S)Nc1cccnc1Cl)C12CC3CC(CC(C3)C1)C2
[2]
  inhibition at 50 µM: 5.21%
[3]
  inhibition at 50 µM: 11.4%
[4]
  Emax: 63%
[6]
  inhibition: 25%
[7]
  pIC50: 6.81
[8]
  cytotoxicity at 24 h, 50 µM: 4.95%
[9]
  inhibition: 13%

## O=C(NC(=S)Nc1cc(Br)cc(C(F)(F)F)c1)C12CC3CC(CC(C3)C1)C2
[1]
  pIC50: 5.34
[2]
  inhibition at 50 µM: 11.9%
[3]
  inhibition at 50 µM: 5.37%
[5]
  pIC50: 5.40
[6]
  inhibition: 20%
[8]
  cytotoxicity at 24 h, 50 µM: 6.85%
[9]
  inhibition: 5%

## O=C(NC(=S)Nc1cccc2cccnc12)C12CC3CC(CC(C3)C1)C2
[16]
  inhibition: 25%
[2]
  inhibition at 50 µM: 6.22%
[3]
  inhibition at 50 µM: 9.12%
[10]
  inhibition: 32%
[17]
  Emax: 42%
[11]
  inhibition: 15%
[18]
  pIC50: 7.17
[19]
  Emax: 31%
[20]
  Emax: 78%
[21]
  Emax: 59%
[8]
  cytotoxicity at 24 h, 50 µM: 5.05%

## O=C(NC(=S)Nc1ccc(O)cc1)C12CC3CC(CC(C3)C1)C2
[22]
  inhibition: 33%
[2]
  inhibition at 50 µM: 8.66%
[3]
  inhibition at 50 µM: 7.21%
[4]
  Emax: 68%
[6]
  inhibition: 26%
[7]
  pIC50: 5.90
[8]
  cytotoxicity at 24 h, 50 µM: 3.02%
[9]
  inhibition: 38%
